Source: ChEMBL document CHEMBL1201862, “PubChem BioAssay data set” (2004)
Counter-ions that a name gives are not always drawn.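 Each compound was tested at five concentrations against cells in 96-well plates for 48 hours. Here, GI50 denotes the concentration required for 50% inhibition of growth.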 Activity calls are given as the source filed them. No stated cut-off is given here; in the data, active = GI50 up to about 1.1 µM and inactive = higher.

Legend:
Assay in all cases: inhibition of tumour cell growth, NCI panel, 48 h
IGROV-1 = tested on: IGROV-1
SF-268 = tested on: SF-268
SNB-19 = tested on: SNB-19
HOP-62 = tested on: HOP-62
A549 = tested on: A549
HCC 2998 = tested on: HCC 2998
HCT-15 = tested on: HCT-15
RPMI-8226 = tested on: RPMI-8226
HT-29 = tested on: HT-29
ACHN = tested on: ACHN
DLD-1 = tested on: DLD-1
TK-10 = tested on: TK-10
SW-620 = tested on: SW-620
DMS-273 = tested on: DMS-273
SF-295 = tested on: SF-295
K562 = tested on: K562
SK-MEL-5 = tested on: SK-MEL-5
MDA-MB-231 = tested on: MDA-MB-231
MCF7 = tested on: MCF7
NCI/ADR-RES = tested on: NCI/ADR-RES

| SMILES | GI50 (IGROV-1) | GI50 (SF-268) | GI50 (SNB-19) | GI50 (HOP-62) | GI50 (A549) | GI50 (HCC 2998) | GI50 (HCT-15) | GI50 (RPMI-8226) | GI50 (HT-29) | GI50 (ACHN) | GI50 (DLD-1) | GI50 (TK-10) | GI50 (SW-620) | GI50 (DMS-273) | GI50 (SF-295) | GI50 (K562) | GI50 (SK-MEL-5) | GI50 (MDA-MB-231) | GI50 (MCF7) | GI50 (NCI/ADR-RES) |
| --- | --- | --- | --- | --- | --- | --- | --- | --- | --- | --- | --- | --- | --- | --- | --- | --- | --- | --- | --- | --- |
| Cc1cc2c(C)n(Cc3ccccc3Cl)nc2c(C(=O)O)c1C | > 100 µM (inactive) | > 100 µM (inactive) | > 100 µM (inactive) | > 100 µM (inactive) | > 100 µM (inactive) | > 100 µM (inactive) | > 100 µM | > 100 µM (inactive) | > 100 µM (inactive) | > 100 µM (inactive) | > 100 µM (inactive) | > 100 µM (inactive) | > 100 µM (inactive) | > 100 µM (inactive) | > 100 µM (inactive) | – | – | – | – | – |
| CC(C)C(=S)N(C)O | > 62.5 µM (inactive) | 27.6 µM (inactive) | > 29.2 µM (inactive) | 24.5 µM (inactive) | 12.4 µM (inactive) | 40.2 µM (inactive) | 24.2 µM | 0.518 µM (active) | 1.46 µM (inactive) | 31 µM (inactive) | 2.73 µM (inactive) | > 51.3 µM (inactive) | 1.52 µM (inactive) | – | 16.8 µM (inactive) | 0.42 µM (active) | 8.02 µM (inactive) | – | – | – |
| COc1ccc(/C=N/NC(=O)C2=C(N)N(c3ccccc3)C(=C(C#N)C#N)S2)cc1 | > 100 µM (inactive) | > 100 µM (inactive) | 70 µM (inactive) | 53.8 µM (inactive) | > 100 µM (inactive) | > 100 µM (inactive) | > 100 µM | > 100 µM (inactive) | > 100 µM (inactive) | > 100 µM (inactive) | > 100 µM (inactive) | > 100 µM (inactive) | > 100 µM (inactive) | – | 45 µM (inactive) | > 100 µM (inactive) | > 100 µM (inactive) | 79.6 µM (inactive) | > 100 µM (inactive) | > 100 µM (inactive) |
| O=C(NC(=O)c1cn(CCN2CCN(C(=O)NCCCCCCNC(=O)N3CCN(CCn4cc(C(=O)NC(=O)OCc5ccccc5)c(=O)[nH]c4=O)CC3)CC2)c(=O)[nH]c1=O)OCc1ccccc1 | > 100 µM (inactive) | – | > 100 µM (inactive) | > 100 µM (inactive) | > 100 µM (inactive) | – | > 100 µM | > 100 µM (inactive) | > 100 µM (inactive) | > 100 µM (inactive) | > 100 µM (inactive) | > 100 µM (inactive) | > 100 µM (inactive) | > 100 µM (inactive) | > 100 µM (inactive) | > 100 µM (inactive) | > 100 µM (inactive) | – | – | – |
| COc1ccc2c3c([nH]c2c1[N+](=O)[O-])C(C)N(Cc1ccc([N+](=O)[O-])cc1)CC3 (stereo unspecified) | 39.8 µM (inactive) | 2.48 µM (inactive) | 19.3 µM (inactive) | > 10 µM (inactive) | > 100 µM (inactive) | 17.2 µM (inactive) | 15.6 µM | 4.12 µM (inactive) | 8.75 µM (inactive) | 18.1 µM (inactive) | – | 29.6 µM (inactive) | 15.1 µM (inactive) | 6.24 µM (inactive) | 16.3 µM (inactive) | 3.22 µM (inactive) | – | – | – | – |
| CC(=O)O/N=C/c1ncccc1OC(C)=O | > 100 µM (inactive) | > 100 µM (inactive) | > 100 µM (inactive) | > 100 µM (inactive) | > 100 µM (inactive) | – | > 100 µM | – | > 100 µM (inactive) | > 100 µM (inactive) | > 100 µM (inactive) | > 100 µM (inactive) | > 100 µM (inactive) | > 100 µM (inactive) | > 100 µM (inactive) | > 100 µM (inactive) | > 100 µM (inactive) | – | – | – |
| C/C(=C1/CCC/C(=C(/C)c2ccccc2)C1=O)c1ccccc1 | 79.4 µM (inactive) | 45.7 µM (inactive) | > 100 µM (inactive) | – | 31.8 µM (inactive) | 46.3 µM (inactive) | 31.6 µM | 23.9 µM (inactive) | 26.4 µM (inactive) | 38.6 µM (inactive) | 43.4 µM (inactive) | > 100 µM (inactive) | 80 µM (inactive) | 32 µM (inactive) | 38.1 µM (inactive) | 18.3 µM (inactive) | 22.8 µM (inactive) | – | – | – |
| CCOC(=O)CNC(=O)OCc1ccccc1 | > 100 µM (inactive) | > 100 µM (inactive) | > 100 µM (inactive) | > 100 µM (inactive) | > 100 µM (inactive) | > 100 µM (inactive) | > 100 µM | – | > 100 µM (inactive) | > 100 µM (inactive) | > 100 µM (inactive) | > 100 µM (inactive) | > 100 µM (inactive) | > 100 µM (inactive) | > 100 µM (inactive) | > 100 µM (inactive) | – | – | – | – |
| Cc1cc2c(=O)cc(-c3ccc(Cl)cc3Cl)oc2c(C(=O)O)c1C | > 100 µM (inactive) | > 100 µM (inactive) | > 100 µM (inactive) | – | > 100 µM (inactive) | – | > 100 µM | > 100 µM (inactive) | > 100 µM (inactive) | > 100 µM (inactive) | > 100 µM (inactive) | > 100 µM (inactive) | > 100 µM (inactive) | – | > 100 µM (inactive) | > 100 µM (inactive) | > 100 µM (inactive) | – | – | – |
| O=C1CC2Sc3ccccc3N=C2N1c1ccc(Cl)cc1Cl (stereo unspecified) | 78.2 µM (inactive) | 40.9 µM (inactive) | 77.8 µM (inactive) | > 100 µM (inactive) | 83.4 µM (inactive) | > 100 µM (inactive) | – | 49.2 µM (inactive) | 92 µM (inactive) | 54.3 µM (inactive) | 32.7 µM (inactive) | > 100 µM (inactive) | 46.2 µM (inactive) | – | 79.8 µM (inactive) | – | 81.5 µM (inactive) | – | – | – |
| O=C(O)CCCNS(=O)(=O)c1ccccc1 | > 100 µM (inactive) | > 100 µM (inactive) | > 100 µM (inactive) | – | > 100 µM (inactive) | > 100 µM (inactive) | > 100 µM | > 100 µM (inactive) | > 100 µM (inactive) | > 100 µM (inactive) | > 100 µM (inactive) | > 100 µM (inactive) | > 100 µM (inactive) | > 100 µM (inactive) | > 100 µM (inactive) | > 100 µM (inactive) | > 100 µM (inactive) | – | – | – |
| NC(=O)NC1NC(=O)NC1=O (stereo unspecified) [ALLANTOIN] | > 100 µM (inactive) | > 100 µM (inactive) | > 100 µM (inactive) | > 100 µM (inactive) | > 100 µM (inactive) | > 100 µM (inactive) | > 100 µM | > 100 µM (inactive) | > 100 µM (inactive) | > 100 µM (inactive) | – | > 100 µM (inactive) | > 100 µM (inactive) | – | > 100 µM (inactive) | > 100 µM (inactive) | > 100 µM (inactive) | > 100 µM (inactive) | > 100 µM (inactive) | > 100 µM (inactive) |
| CN1CCC(CN2c3ccccc3Sc3ccccc32)C1 (stereo unspecified) [METHDILAZINE HYDROCHLORIDE] | 17.3 µM (inactive) | 15.3 µM (inactive) | 17.9 µM (inactive) | 15 µM (inactive) | 16.2 µM (inactive) | 10.1 µM (inactive) | 16.2 µM | 15.1 µM (inactive) | 10.9 µM (inactive) | 14.7 µM (inactive) | – | 17.6 µM (inactive) | 19.2 µM (inactive) | – | 16.1 µM (inactive) | 12.3 µM (inactive) | 13.7 µM (inactive) | 14 µM (inactive) | 17.2 µM (inactive) | 15.2 µM (inactive) |
